Assay results published in publication PMC6515519, “Structure–Activity Relationships of the Tetrapeptide Ac-His-Arg-(pI)DPhe-Tic-NH2 at the Mouse Melanocortin Receptors: Modification at the (pI)DPhe Position Leads to mMC3R Versus mMC4R Selective Ligands” (Molecules, 2019).
Read-outs that look alike come from different tables or passages of the source. Non-standard residues stand in square brackets, D forms with d. Residues, ends and D or L forms follow the SMILES beside them. dPhe(4-tBu) = CC(C)(C)c1ccc(C[C@@H](N)C(=O)O)cc1; dPhe(3,4-Cl2) = N[C@H](Cc1ccc(Cl)c(Cl)c1)C(=O)O; dPhe(4-CF3) = N[C@H](Cc1ccc(C(F)(F)F)cc1)C(=O)O; dBip = N[C@H](Cc1ccc(-c2ccccc2)cc1)C(=O)O; dPhe(4-Br) = N[C@H](Cc1ccc(Br)cc1)C(=O)O; Tic = O=C(O)[C@@H]1Cc2ccccc2CN1

Key:
MC4R = details: partial stimulation, % efficacy of NDP-MSH; cited from earlier work
mMC4R [1] = target: T1, mMC4R (Mus musculus, UniProt P56450); test: β-galactosidase cAMP reporter assay, antagonist Schild analysis with NDP-MSH as agonist; assay type: cell-based; details: for mMC4R pA2: Schild analysis, <5.5 = no antagonist potency at highest range (10,000, 5000, 1000, 500 nM)
T1 construct: expressed in transfected cells
Description: (§1) Peptides were synthesized manually with microwave irradiation using standard Fmoc synthesis techniques and purified using semi-preparative reverse-phase high-pressure liquid-chromatography (RP-HPLC). […] Agonist pharmacology was measured at the mMC3R, mMC4R, and mMC5R using a colorimetric β-galactosidase assay that measures cAMP production. Agonist pharmacology was assessed at the mMC1R using the Amplified Luminescent Proximity Homogenous Assay Screen (AlphaScreen, PerkinElmer), as previously described. The MC2R is only stimulated by ACTH, and was not examined in this study. For both assays, HEK293 cells stably expressing the mMCRs were used.
(§2) The peptide ligands were assessed for pharmacological activity at the mMC3R, mMC4R, and mMC5R using a β-galactosidase assay. Briefly, HEK293 cells stably expressing the MC3R, MC4R, or MC5R were plated into a 10 cm dish and grown to 40% confluency. The HEK293 cells were transfected with 4 µg of CRE/β-galactosidase using the calcium-phosphate method, as previously described. Cells (5000 to 15,000) were plated on collagen-treated Nunclon Delta Surface 96-well plates (Thermo Fisher Scientific) and incubated at 37 °C with 5% CO2. […] Plates were stored at −80 °C for up to two weeks.
(§3) Thawed plates were assessed for protein content and assayed for β-galactosidase activity. Relative protein concentration was determined by adding 10 µL of cell lysate to 200 µL of a 1:5 dilution of Bio Rad G250 protein dye in a 96-well plate.
(§4) The EC50 and pA2 values represent the mean of duplicate replicates performed in at least three independent experiments. The EC50 and pA2 values and their associated standard errors (SEM) were determined by fitting the data to a nonlinear least-squares analysis using the PRISM program (v4.0, GraphPad Inc., San Diego, CA, USA). The ligands were assayed as TFA salt and not corrected for peptide content.

mMC5R = target: T2, mMC5R (Mus musculus, UniProt P41149); test: β-galactosidase cAMP reporter assay, agonist pharmacology in HEK293 cells stably expressing mMC5R; assay type: cell-based; details: for EC50: β-galactosidase cAMP, HEK293, mean ± SEM, apparent EC50 for partial agonists
T2 construct: expressed in transfected cells
Description: as §1, §2, §3, §4

mMC3R = target: T3, mMC3R (Mus musculus, UniProt P33033); test: β-galactosidase cAMP reporter assay, agonist pharmacology in HEK293 cells stably expressing mMC3R; assay type: cell-based; details: for decreased agonist potency at the mMC3R compared to KNS2-22-4: ratio of EC50 to KNS2-22-4; for EC50: β-galactosidase cAMP, HEK293, mean ± SEM, apparent EC50 for partial agonists; for mMC3R percent maximal stimulation relative to NDP-MSH (partial agonist): relative to maximal NDP-MSH signal; for agonist selectivity for the mMC3R over the mMC4R: mMC3R versus mMC4R agonist potency
T3 construct: expressed in transfected cells
Description: as §1, §2, §3, §4

mMC1R = target: T4, mMC1R (Mus musculus, UniProt Q01727); test: AlphaScreen cAMP assay, agonist pharmacology in HEK293 cells stably expressing mMC1R; assay type: cell-based; details: for EC50: AlphaScreen cAMP, HEK293, mean ± SEM, at least three experiments; for decreased agonist potency at the mMC1R compared to KNS2-22-4: ratio of EC50 to KNS2-22-4; for potency increase at the mMC1R relative to Ac-His-DPhe-Arg-Trp-NH2: compared with KNS2-153
T4 construct: expressed in transfected cells
Description: as §1
Peptide ligands were dissolved in DMSO at stock concentrations of 10^−2 M. To assess the pharmacological activity of the tetrapeptides at the mMC1R, HEK293 cells stably expressing the mMC1R were stimulated with the ligands using the cAMP AlphaScreen assay (PerkinElmer) according to the manufacturer’s instruction and as previously described.
Cells were dislodged with Versene (Gibco) at 37 °C, and 10,000 cells/well were plated in a 384-well plate (Optiplate) with freshly made stimulation buffer (Hank’s Balanced Salt Solution (HBSS, 1×), 0.5 mM 3-isobutyl-1-methylxanthine (IBMX), 5 mM HEPES, and 0.1% bovine serum albumin (BSA), pH = 7.4) with 0.5 μg anti-cAMP acceptor beads per well.
Plates were incubated for an additional 2 h in the dark. Post incubation, the plates were read by an EnSpire plate reader (PerkinElmer, Waltham, MA, USA).
as §4

mMC4R [2] = target: T1, mMC4R; test: β-galactosidase cAMP reporter assay, agonist pharmacology in HEK293 cells stably expressing mMC4R; assay type: cell-based; details: for mMC4R percent maximal stimulation relative to NDP-MSH (partial agonist): relative to maximal NDP-MSH signal; for mMC4R agonist activity: full agonist = >90% of maximal NDP-MSH signal, inactive = <20% at 100 µM
Description: as §1, §2, §3, §4

T3 sequence (P33033 whole entry): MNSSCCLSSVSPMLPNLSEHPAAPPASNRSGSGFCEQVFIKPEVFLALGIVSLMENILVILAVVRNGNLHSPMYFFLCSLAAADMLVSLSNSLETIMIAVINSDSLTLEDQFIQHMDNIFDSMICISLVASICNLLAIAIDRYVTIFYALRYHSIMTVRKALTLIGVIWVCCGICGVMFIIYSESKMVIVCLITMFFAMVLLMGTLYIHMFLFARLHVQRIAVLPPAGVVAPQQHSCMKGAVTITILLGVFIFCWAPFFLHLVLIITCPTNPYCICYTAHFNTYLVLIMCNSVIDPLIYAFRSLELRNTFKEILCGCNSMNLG
T4 sequence (Q01727 whole entry): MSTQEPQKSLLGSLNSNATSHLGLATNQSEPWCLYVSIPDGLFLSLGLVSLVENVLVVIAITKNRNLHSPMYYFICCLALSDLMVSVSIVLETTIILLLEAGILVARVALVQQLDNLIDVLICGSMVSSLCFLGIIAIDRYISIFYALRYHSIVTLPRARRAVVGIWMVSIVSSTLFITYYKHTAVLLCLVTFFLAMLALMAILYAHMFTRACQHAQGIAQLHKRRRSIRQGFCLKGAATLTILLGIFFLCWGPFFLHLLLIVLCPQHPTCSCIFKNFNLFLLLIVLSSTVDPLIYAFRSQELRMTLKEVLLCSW
T1 sequence (P56450 whole entry): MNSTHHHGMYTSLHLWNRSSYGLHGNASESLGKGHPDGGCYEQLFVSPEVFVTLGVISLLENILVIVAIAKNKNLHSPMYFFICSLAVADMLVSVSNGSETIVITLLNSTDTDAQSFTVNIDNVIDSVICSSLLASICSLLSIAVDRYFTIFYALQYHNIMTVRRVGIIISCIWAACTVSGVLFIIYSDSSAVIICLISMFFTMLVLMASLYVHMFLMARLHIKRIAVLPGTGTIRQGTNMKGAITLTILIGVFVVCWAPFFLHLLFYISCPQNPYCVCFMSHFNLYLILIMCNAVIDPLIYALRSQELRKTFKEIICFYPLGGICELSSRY
T2 sequence (P41149 whole entry): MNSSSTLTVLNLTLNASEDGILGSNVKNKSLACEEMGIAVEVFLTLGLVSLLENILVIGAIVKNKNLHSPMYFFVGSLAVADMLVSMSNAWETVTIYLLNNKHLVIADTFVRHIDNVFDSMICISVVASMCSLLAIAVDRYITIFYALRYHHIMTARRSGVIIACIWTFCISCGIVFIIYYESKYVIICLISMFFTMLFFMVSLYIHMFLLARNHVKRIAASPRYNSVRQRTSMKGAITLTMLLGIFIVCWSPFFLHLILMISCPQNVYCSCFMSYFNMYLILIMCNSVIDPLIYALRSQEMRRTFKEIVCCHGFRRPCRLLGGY

| Kb (mMC4R [1]; read-out: mMC4R pA2 (converted)) [nM] | Compound | MC4R efficacy relative to NDP-MSH (MC4R) | Kb (mMC4R [1]) [nM] | mMC4R pA2 (mMC4R [1]; agonist NDP-MSH) | EC50 (mMC5R) [nM] | decreased agonist potency at the mMC3R compared to KNS2-22-4 (mMC3R) [fold] | EC50 (mMC3R) [nM] | EC50 (mMC1R) [nM] | decreased agonist potency at the mMC1R compared to KNS2-22-4 (mMC1R) [fold] | EC50 (mMC4R [2]) [nM] | mMC4R percent maximal stimulation relative to NDP-MSH (partial agonist) (mMC4R [2]) [% NDP] | mMC4R antagonist activity (mMC4R [1]; Schild design, agonist NDP-MSH, in the concentrations assayed) | mMC3R percent maximal stimulation relative to NDP-MSH (partial agonist) (mMC3R) [% NDP] | mMC4R agonist activity (mMC4R [2]) | decreased agonist potency at the mMC5R compared to KNS2-22-4 (mMC5R; ratio of EC50 to KNS2-22-4) [fold] | agonist selectivity for the mMC3R over the mMC4R (mMC3R) | potency increase at the mMC1R relative to Ac-His-DPhe-Arg-Trp-NH2 (mMC1R) [fold] |
| --- | --- | --- | --- | --- | --- | --- | --- | --- | --- | --- | --- | --- | --- | --- | --- | --- | --- |
| – | Ac-Val-Gln-(pI)DPhe-DTic-NH2 | less than 50% | – | – | – | – | – | – | – | – | – | – | – | – | – | – | – |
| – | CC(=O)N[C@@H](Cc1c[nH]cn1)C(=O)N[C@@H](CCCNC(=N)N)C(=O)N[C@H](Cc1ccc(C(F)(F)F)cc1)C(=O)N1Cc2ccccc2C[C@H]1C(N)=O [KNS2-23-6, Ac-His-Arg-(pCF3)DPhe-Tic-NH2] (Ac-HR[dPhe(4-CF3)][Tic]-NH2) | – | 316 | 6.5 | 13 ± 4 | 7 | 90 ± 30 | 5 ± 1 | 7 | 600 | 20 | – | – | – | – | – | – |
| > 3160 | CC(=O)N[C@@H](Cc1c[nH]cn1)C(=O)N[C@@H](CCCNC(=N)N)C(=O)N[C@H](Cc1ccc(O)cc1)C(=O)N1Cc2ccccc2C[C@H]1C(N)=O [KNS2-23-9, Ac-His-Arg-DTyr-Tic-NH2] (Ac-HR[dY][Tic]-NH2) | – | – | – | 1000 ± 500 | – | 4200 | 40 ± 10 | – | > 100000 | – | did not possess agonist or antagonist activity | 85 | did not possess agonist or antagonist activity | – | – | – |
| – | CC(=O)N[C@@H](Cc1c[nH]cn1)C(=O)N[C@@H](CCCNC(=N)N)C(=O)N[C@H](Cc1ccc(Cl)c(Cl)c1)C(=O)N1Cc2ccccc2C[C@H]1C(N)=O [KNS2-23-4, Ac-His-Arg-(3,4-diCl)DPhe-Tic-NH2] (Ac-HR[dPhe(3,4-Cl2)][Tic]-NH2) | – | 708 | 6.2 | 70 ± 7 | 30 | 400 ± 100 | 5 ± 2 | 7 | > 100000 | – | – | – | did not result in stimulation | 14 | at least 100 fold | – |
| – | CC(=O)N[C@@H](Cc1c[nH]cn1)C(=O)N[C@@H](CCCNC(=N)N)C(=O)N[C@H](Cc1ccc(-c2ccccc2)cc1)C(=O)N1Cc2ccccc2C[C@H]1C(N)=O [KNS2-23-1, Ac-His-Arg-DBip-Tic-NH2] (Ac-HR[dBip][Tic]-NH2) | – | – | 5.9 ± 0.2 | 7.6 ± 0.7 | – | 14 ± 2 | 0.6 ± 0.1 | – | 1400 | 45 | – | – | – | – | at least 100 fold | ≥ 10 |
| – | CC(=O)N[C@@H](Cc1c[nH]cn1)C(=O)N[C@@H](CCCNC(=N)N)C(=O)N[C@H](Cc1ccc(C(C)(C)C)cc1)C(=O)N1Cc2ccccc2C[C@H]1C(N)=O [KNS2-23-3, Ac-His-Arg-(ptBu)DPhe-Tic-NH2] (Ac-HR[dPhe(4-tBu)][Tic]-NH2) | – | 158 | 6.8 | 3.4 ± 0.3 | – | 13 | 9 ± 3 | 13 | > 100000 | < 20 | – | 85 | – | – | at least 100 fold | – |
| – | CC(=O)N[C@@H](Cc1c[nH]cn1)C(=O)N[C@@H](CCCNC(=N)N)C(=O)N[C@H](Cc1ccc(Br)cc1)C(=O)N1Cc2ccccc2C[C@H]1C(N)=O [KNS2-22-3, Ac-His-Arg-(pBr)DPhe-Tic-NH2] (Ac-HR[dPhe(4-Br)][Tic]-NH2) | – | – | – | 9.7 ± 0.5 | – | 90 ± 20 | 0.7 ± 0.3 | – | 290 | 55 | – | – | – | – | – | ≥ 10 |
